Where two headings read alike, the source gives them in different places.
Legend:
Type in all cases: cell-based
[1] = test system: HIV-1 from patient plasma on TZMbl cells; assay: Infection of TZMbl indicator cells with virus pelleted from patient plasma (Example 2); conditions: samples in DMEM-10 (n=9), plasma collected in the named anti-coagulant
Protocol: (§1) Blood is collected from HIV-1-infected individuals in sodium heparin, anti-coagulant citrate dextrose (ACD) a ethylenediamine tetraacetic acid (EDTA) and/or any other anti-coagulant blood tubes. The plasma isolated from each tube is stored at −80° C. until use.
To pellet the virus, plasma was diluted 1 in 2 (to a final volume of 800 μL) and layered over a 20% w/v sucrose cushion. The plasma was centrifuged at 17,000×g for 2 hours at 4° C. […]
Samples are also resuspended in DMEM-10 media and added to TZMbl cells. […] Upon integration of the host genome with the HIV-1 genome, these two genes are expressed and can be measured (NIH AIDS Research and Reference Reagent Program, Division of AIDS, NIAID, NIH (Derdeyn et al. Journal of Virology 74:8358-8367, 2000; Platt et al. Journal of Virology 72:2855-2864, 1998; Wei et al. Antimicrobial Agents and Chemotherapy 46:1896-1905, 2002). Following HIV infection of TZMbls, there is an increase in β-gal expression over the next 5 days. Infection is most simply measured by counting the number of cells that express β-gal (or are blue). The maximum number of blue cells that can be counted by this assay is 300 cells. […]
At day 5 post-infection, GHOST cells are washed in phosphate buffered saline (PBS), detached from the plate with Trypsin-EDTA, washed twice in FACS wash and fixed with FACS Fix. […] Uninfected cells are analyzed as a negative/background control.

[2] = test system: HIV-1 from patient plasma on GHOSTX4R5 cells; conditions: for number of patients whose virus infected GHOSTX4R5 cells: of 5 patients
Protocol: Matched patient blood samples were collected from HIV-1 positive, viraemic individuals, in sodium heparin, ACD and EDTA blood tubes.
To prepare a viral isolate pellet, plasma was diluted 1 in 2 (to a final volume of 800 μL) and layered over a 20% v/v sucrose cushion. The plasma was centrifuged at 17,000×g for 2 hours at 4° C. The supernatant was aspirated and the viral pellet was resuspended in 50 μL media as follows: • Sodium heparin samples: • Resuspended in GHOST media. • ACD samples: • One sample resuspended in GHOST media. • One sample resuspended in GHOST media plus Heparin at 20 U/mL. • One sample resuspended in GHOST media plus EDTA* • EDTA samples: • One sample resuspended in GHOST media. • One sample resuspended in GHOST media plus Heparin at 20 U/mL. • One sample resuspended in GHOST media plus ACD*
*ACD and EDTA were obtained by filling collection tubes with 9 mL of GHOST media. This media was then used undiluted to resuspend the pellet.
All samples contained Polybrene at 2 μg/mL.
Samples were added to GHOSTX4R5 cells which had been seeded the night before in a 96-well flat-bottomed TC plate at 10,000 cells/well. The cells were subjected to Spinoculation—centrifugation at 1200×g for 2 hours at room temperature. The volume of media was increased to 150 μL with GHOSTX4R5 media and the cells were incubated for 5 days.
The cells were washed in PD, detached from the plate with Trypsin-EDTA, washed 2× in FACS wash and fixed with FACS Fix. The cells were then analyzed by flow cytometry for GFP expression as an indication of HIV-1 infection. Cells infected with HIV-1 lab strains 89.6, NL4-3 and AD8 were run concurrently as positive controls for infection. Uninfected cells were analyzed as a negative/background control.

[3] = test system: HIV-1 from patient plasma on GHOSTX4R5 cells
Protocol: as §1
To pellet the virus, plasma was diluted 1 in 2 (to a final volume of 800 μL) and layered over a 20% w/v sucrose cushion. The plasma was centrifuged at 17,000×g for 2 hours at 4° C. The supernatant was aspirated and the viral pellet (viral isolate) was resuspended in 50 μL of GHOST media (Dulbecco's Modified Eagle's Medium (DMEM, Invitrogen, Auckland, NZ), 10% v/v Cosmic calf serum (Quantum Scientific, Milton, Qld), 1× Penicillin/Streptomycin/Glutamine (Invitrogen), 1 μg/mL Puromycin (Sigma, St. Louis, Mo.), 100 μg/mL Hygromycin (Sigma), 500 μg/mL G418 (AG Scientific, San Diego, Calif.)) or DMEM-10 (DMEM, 10% v/v Cosmic calf serum) in the presence and absence of Heparin (20 U/mL, David Bull Laboratories, Melbourne, Australia). All samples contain polybrene at 2 μg/mL. Samples resuspended in DMEM-10 contain 40 μg/mL DEAE-Dextran.
Samples were resuspended in GHOST media and added to GHOSTX4R5 cells which have been seeded 24 hours previously in a 96-well flat-bottomed plate at 10,000 cells/well. GHOSTX4R5 cells are an adherent cell line derived from human osteosarcoma (HOS cells). They are stably transfected with the HIV-2 LTR driving hGFP construct and express green fluorescent protein (GFP) when productively infected with HIV or SIV. The cells also stably express surface CD4, CCR5 and CXCR4 (Morner et al. Journal of Virology 73:2342-2349, 1999) (NIH AIDS Research and Reference Reagent Program, Division of AIDS, NIAID, NIH).
Both cell lines are infected at the same time with HIV-1 strains 89.6 (uses both CXCR4 and CCR5), NL4-3 (uses CXCR4 only) and AD8 (uses CCR5 only) as positive controls for infection. The cells are then subjected to spinoculation—centrifugation at 1200×g for 2 hours at room temperature. The volume of media is increased to 150 μL with media and the cells are incubated for 5 days. Samples are observed for the presence of clot formation at all stages.
At day 5 post-infection, GHOST cells are washed in phosphate buffered saline (PBS), detached from the plate with Trypsin-EDTA, washed twice in FACS wash and fixed with FACS Fix. The cells are then analyzed by flow cytometry for expression of GFP as an indication of HIV-1 infection. TZMbl cells are washed in PBS and fixed for 5 mins in fixative. Cells are washed once and 50 μL of β-gal substrate is added to each well. The cells are incubated at 37° C. for 2 hours. […] Under a light microscope, the number of blue-stained (HIV-1 infected) foci are counted. Uninfected cells are analyzed as a negative/background control.

[4] = Day 5 post-infection, named anti-coagulant combination
[5] = GHOSTX4R5 cells, samples in GHOST media (n=10), plasma collected in the named anti-coagulant

| Molecule | patient samples with viral infection observed [1] [%] | mean number of infected cells ([2]; 5 patients, ACD or EDTA added to samples) | number of patients whose virus infected GHOSTX4R5 cells [2, 4] | patient samples with viral infection observed [3, 5] [%] | mean number of GFP positive cells per 100,000 cells ([2]; 5 patients, blood collected in sodium heparin, compared with other anti-coagulant combinations) | mean number of infected cells ([2]; 5 patients, heparin added to samples collected in ACD or EDTA, versus ACD or EDTA alone) | number of patients whose virus infected GHOSTX4R5 cells ([2]; viral isolates derived from ACD plasma to which heparin had been added) | patient samples with viral infection observed ([3]; GHOSTX4R5 cells (n=10), plasma collected in ACD, heparin added to the resuspended plasma pellet) [%] | patient samples with viral infection observed ([3]; GHOSTX4R5 cells (n=10), samples collected in EDTA to which heparin had been added) [%] |
| --- | --- | --- | --- | --- | --- | --- | --- | --- | --- |
| O=C(O)CN(CCN(CC(=O)O)CC(=O)O)CC(=O)O [EDTA, ethylenediamine tetraacetic acid] | 22 | very low | 4 | 30 | – | – | – | – | – |
| heparin | 33 | – | 3 | 40 | highest | slightly improved | 5 | 50 | 40 |

Source: patent US20110230571A1, “DIAGNOSTIC AND THERAPEUTIC PROTOCOLS” (ALFRED HEALTH, priority 2007, published 2011)
